Tests used:
H2030 (KRAS.G12C) = assay: Mitochondrial content with Mitotracker Deep Red FM in long term drug tolerant line; format: cell-based, human; conditions: 30 day treatment, 10 uM; drug-persistent vs parental H2030
KRAS.G12V cell line H441 = assay: Lipid peroxidation by KRAS inhibitors in non-KRAS.G12C line; format: cell-based, human
Procedure: (§1) FIG. 7B plots gene expression of anti-ferroptotic genes for each cell line in response to increasing ARS1620 dosage.
(§2) Using a lipid peroxidation live cell probe, lipid peroxidation—one of the hallmark phenotypes of ferroptosis—was measured in response to ARS-1620 treatment.

[1] = system: tumors from KRAS.G12C, EML4-ALK, and TH21 lung cancer patients; assay: GENEVA pools of PDX models, relative survival by genotype; format: in vivo, human; conditions: PDX GENEVA pool
Source text: Higher confidence metrics are noted in the dotted line, or Noise Corrected Algorithm results.
GENEVA pools of PDX models were created for a long term drug treatment assay. Tumors were implanted in vivo and in organoids, and tumors from KRAS.G12C, EML4-ALK, and TH21 lung cancer patients were drugged in GENEVA pools. Significant drug sensitivity was found in EML4-ALK patient greater than sensitivity of KRAS.G12C mutant tumors indicating EML4-ALK patient tumors would respond to a KRAS.G12C inhibitor (FIG. 9B).

[2] = system: KRAS.G12C cell lines in a cell pool; assay: GENEVA pool gene set expression after drug, in vivo; design: species or system mouse; conditions: post-drug treatment
Procedure: 2 mL of Matrigel Basement Membrane reagent was added to the GENEVA pool prepared by growth rate balancing for a final concentration of 20M/mL. One hundred microliters of this solution was injected into NSG mice in a flank xenograft injection. Twenty-four hours later, mice harboring GENEVA tumors were drugged with the drug compound in a vehicle solution of 5% DMSO, 95% Labrasol. Mice were dosed by oral gavage four fourteen days with five days on, two days off. On the fourteenth day, mice were sacrificed, tumors harvested by homogenization with surgical shears and resuspended in 5 mg/mL Liberase™ Cell Dissociation Reagent in 1:1 DMEM: F12 cell media, DNAse I (10 U/uL). Tumors were incubated in a 37° C. incubator with shaking at 600 RPMs for 45 minutes for enzymatic dissociation and then spun down at 800 g for 5 minutes at 4° C. Dissociated tumors were resuspended in 100 uL 1×PBS.
The GENEVA datasets were compared where GENEVA pools were drugged with the KRAS.G12C inhibitor ARS1620, conducted both in vitro and in vivo. Specifically, the in vitro data were compared against the in vivo data to look for differences and similarities attributable to the context of the model systems used. […]
For in vivo and in vitro datasets, we combined the median z score results determined in Example 8 and t-test results, respectively, were combined on a paired geneset by geneset basis. […]

[3] = system: KRAS.G12C cell line H2030; assay: Lipid peroxidation by KRAS inhibitors in KRAS.G12C line; format: cell-based, human
Procedure: as §1, §2

[4] = system: patients derived xenografts (PDX) grown as pooled organoids; assay: Cell cycle inhibition rates from GENEVA in pooled PDX; format: cell-based, human; conditions: PDX with known KRAS.G12C mutations; in vivo and ex vivo systems
Source text: Using growth-rate balanced heterogeneous cell pools adjusted for long time-course drug treatment, pools were created from four human patient-derived xenograft (PDX) models and implanted as a pooled tumor in a flank xenograft mouse model. The pooled tumors were drugged in mice by oral dosing by gavage for fourteen days with the molecule ARS-1620. After the treatment interval, tumors were harvested from mice, and single-cell RNA sequencing, genetic demultiplexing (as illustrated in Example 2), and sample hashing using barcoded antibodies was performed. Sufficient numbers of cells were observed from each PDX genetic background and drug treatment condition (FIG. 2C,D) for inference of drug phenotype and drug changes to the transcriptome. Pools from four PDX models were created for implantation for a fourteen day drug treatment in a 3D Organoid model system. […]
Cell Cycle was calculated by regressing whole transcriptome readouts and weighting according to specified genes of interest related to different cell cycle states. Cells were assigned into G1, S, and G2/M. The cell cycle ratio was then calculated as fraction of cells per population: […]
yielded a function where the slope was determined as the cell cycle inhibition rate, reflecting an alternative way to measure phenotype derived solely from transcriptome drug perturbation data over a long time course.

C=CC(=O)N1CCN(c2ncnc3c(F)c(-c4c(O)cccc4F)c(Cl)cc23)CC1 [ARS1620]
mitochondrial content after long term treatment (H2030 (KRAS.G12C)): mitochondria are significantly ablated
lipid peroxidation (KRAS.G12V cell line H441): this effect was significantly muted
relative survival of genotype under treatment or vehicle [1]: EML4-ALK as the most drug sensitive tumor type
endothelial-mesenchymal transition hallmark gene expression signature [2]: increased in vivo
lipid peroxidation [3]: increased lipid peroxidation
drug sensitivity by estimation of cell cycle inhibition rates [4]: shown to be sensitive to the compound (patients 877 and 233)
